Source: ChEMBL document CHEMBL1135055, “Amide derivatives of meclofenamic acid as selective cyclooxygenase-2 inhibitors” (Bioorg Med Chem Lett, 2002)

What was measured:
[1] = molecular target: T1, Prostaglandin G/H synthase 1 (Ovis aries, UniProt P05979); assay: Inhibition of the ovine Prostaglandin G/H synthase 1 was determined by thin-layer chromatography assay
T1 sequence (P05979 whole entry): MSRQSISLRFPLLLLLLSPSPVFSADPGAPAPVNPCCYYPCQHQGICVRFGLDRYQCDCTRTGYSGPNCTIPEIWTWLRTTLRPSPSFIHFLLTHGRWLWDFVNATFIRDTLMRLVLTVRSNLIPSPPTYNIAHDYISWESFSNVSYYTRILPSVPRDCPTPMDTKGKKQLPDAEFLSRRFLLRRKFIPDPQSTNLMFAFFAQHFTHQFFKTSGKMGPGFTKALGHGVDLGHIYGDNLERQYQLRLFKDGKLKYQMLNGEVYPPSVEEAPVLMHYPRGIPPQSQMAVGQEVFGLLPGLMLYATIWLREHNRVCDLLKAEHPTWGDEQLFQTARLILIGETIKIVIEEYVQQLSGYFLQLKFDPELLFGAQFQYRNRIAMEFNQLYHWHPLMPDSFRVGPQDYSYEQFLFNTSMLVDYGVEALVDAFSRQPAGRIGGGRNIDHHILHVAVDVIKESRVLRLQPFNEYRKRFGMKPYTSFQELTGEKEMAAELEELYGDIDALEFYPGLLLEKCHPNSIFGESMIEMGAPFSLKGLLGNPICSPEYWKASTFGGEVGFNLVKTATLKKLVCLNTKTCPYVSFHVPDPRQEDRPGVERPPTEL

[2] = Inhibitory concentration against prostaglandin E2
[3] = molecular target: T2, Prostaglandin G/H synthase 2 (Mus musculus, UniProt Q05769, R106A)
T2 sequence (Q05769 18-604 R106A limits assumed): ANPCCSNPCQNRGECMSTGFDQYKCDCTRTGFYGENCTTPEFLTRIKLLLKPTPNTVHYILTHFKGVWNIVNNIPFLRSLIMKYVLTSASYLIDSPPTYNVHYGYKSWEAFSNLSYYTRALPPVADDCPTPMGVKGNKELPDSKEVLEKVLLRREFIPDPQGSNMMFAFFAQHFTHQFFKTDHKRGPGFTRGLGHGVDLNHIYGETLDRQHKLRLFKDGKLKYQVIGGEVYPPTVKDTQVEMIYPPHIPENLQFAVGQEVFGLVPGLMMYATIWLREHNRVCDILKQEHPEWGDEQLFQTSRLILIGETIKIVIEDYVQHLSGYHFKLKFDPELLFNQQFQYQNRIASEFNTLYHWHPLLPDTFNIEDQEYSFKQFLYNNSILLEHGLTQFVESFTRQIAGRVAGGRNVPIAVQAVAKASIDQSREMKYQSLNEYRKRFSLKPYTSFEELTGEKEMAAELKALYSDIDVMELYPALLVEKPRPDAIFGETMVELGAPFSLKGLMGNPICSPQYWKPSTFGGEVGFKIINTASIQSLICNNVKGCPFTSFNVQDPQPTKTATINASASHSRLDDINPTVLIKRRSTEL
Description: Inhibition of the Arg120Ala murine COX-2 mutant enzyme

[4] = molecular target: T3, Prostaglandin G/H synthase 2 (Homo sapiens, UniProt P35354)
T3 sequence (P35354 whole entry): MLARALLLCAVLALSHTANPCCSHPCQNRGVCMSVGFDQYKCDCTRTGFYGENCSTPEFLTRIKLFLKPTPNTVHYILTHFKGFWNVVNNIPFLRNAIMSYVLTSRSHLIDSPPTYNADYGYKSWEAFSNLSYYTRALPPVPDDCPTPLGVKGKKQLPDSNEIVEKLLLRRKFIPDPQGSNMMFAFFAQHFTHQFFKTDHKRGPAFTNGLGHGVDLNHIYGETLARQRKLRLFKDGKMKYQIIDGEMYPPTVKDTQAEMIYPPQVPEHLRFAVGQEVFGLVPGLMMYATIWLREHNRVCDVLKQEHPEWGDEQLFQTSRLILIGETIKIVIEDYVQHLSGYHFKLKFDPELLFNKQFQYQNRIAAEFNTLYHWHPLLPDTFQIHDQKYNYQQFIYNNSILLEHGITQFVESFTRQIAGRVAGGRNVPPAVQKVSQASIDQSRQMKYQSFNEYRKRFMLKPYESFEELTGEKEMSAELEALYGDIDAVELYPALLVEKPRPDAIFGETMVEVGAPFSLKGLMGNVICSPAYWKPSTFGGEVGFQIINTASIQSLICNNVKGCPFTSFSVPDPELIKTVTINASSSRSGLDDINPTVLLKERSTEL
Description: Inhibition of the human Prostaglandin G/H synthase 2 was determined by thin-layer chromatography assay

[5] = molecular target: T2, Prostaglandin G/H synthase 2; assay: Inhibition of the murine Arg120Ala mutant type COX-2
[6] = molecular target: T4, Prostaglandin G/H synthase 2 (Mus musculus, UniProt Q05769); assay: Inhibition of the murine wild type Prostaglandin G/H synthase 2
T4 sequence (Q05769 whole entry): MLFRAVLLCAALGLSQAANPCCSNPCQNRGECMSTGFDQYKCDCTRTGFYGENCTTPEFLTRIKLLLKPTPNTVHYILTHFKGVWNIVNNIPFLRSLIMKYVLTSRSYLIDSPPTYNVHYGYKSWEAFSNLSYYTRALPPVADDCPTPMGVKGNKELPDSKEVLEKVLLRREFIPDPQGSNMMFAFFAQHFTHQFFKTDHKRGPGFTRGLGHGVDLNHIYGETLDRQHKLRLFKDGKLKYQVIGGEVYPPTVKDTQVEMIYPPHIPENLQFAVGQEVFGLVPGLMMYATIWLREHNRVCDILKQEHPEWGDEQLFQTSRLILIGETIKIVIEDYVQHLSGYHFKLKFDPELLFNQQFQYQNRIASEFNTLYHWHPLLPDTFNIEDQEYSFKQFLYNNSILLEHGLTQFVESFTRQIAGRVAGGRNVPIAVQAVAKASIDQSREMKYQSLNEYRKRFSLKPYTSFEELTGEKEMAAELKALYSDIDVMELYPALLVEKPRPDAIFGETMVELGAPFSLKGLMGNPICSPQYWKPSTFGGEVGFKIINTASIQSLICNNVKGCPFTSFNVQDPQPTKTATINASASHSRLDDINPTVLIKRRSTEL

IC50 [1] [µM]	IC50 [4] [µM]	IC50 [5] [µM]	IC50 [6] [µM]	Compound	IC50 [2] [µM]	IC50 [3] [µM]
0.4	0.3	–	–	Cc1ccc(Cl)c(Nc2ccccc2C(=O)NCC(=O)O)c1Cl	–	–
8	> 33	–	–	Cc1ccc(Cl)c(Nc2ccccc2C(=O)N[C@H](C)C(=O)O)c1Cl	–	–
> 2	> 2	–	–	CNC(=O)c1ccccc1Nc1c(Cl)ccc(C)c1Cl	–	–
0.07	2	–	–	Cc1ccc(Cl)c(Nc2ccccc2C(=O)NCCBr)c1Cl	–	–
5	6.3	–	–	Cc1ccc(Cl)c(Nc2ccccc2C(=O)NNCc2ccccc2)c1Cl	–	–
0.07	1.2	–	–	COC(=O)CNC(=O)c1ccccc1Nc1c(Cl)ccc(C)c1Cl	–	–
17	4	–	–	COC(=O)c1ccccc1Nc1c(Cl)ccc(C)c1Cl	–	–
0.05	0.04	0.4	0.2	Cc1ccc(Cl)c(Nc2ccccc2C(=O)O)c1Cl [MECLOFENAMIC ACID]	–	–
0.6	1	–	–	Cc1ccc(Cl)c(Nc2ccccc2C(=O)NCCO)c1Cl	–	–
0.25	11	–	–	COCCCNC(=O)c1ccccc1Nc1c(Cl)ccc(C)c1Cl	–	–
0.5	55	–	–	CONC(=O)c1ccccc1Nc1c(Cl)ccc(C)c1Cl	–	–
> 20	> 20	–	–	CC(=O)Nc1ccc(OC(=O)c2ccccc2Nc2c(Cl)ccc(C)c2Cl)cc1	–	–
0.05	0.06	–	–	CCCCCCCCNC(=O)c1ccccc1Nc1c(Cl)ccc(C)c1Cl	–	–
0.06	2.4	–	–	Cc1ccc(Cl)c(Nc2ccccc2C(=O)NCCCCl)c1Cl	–	–
0.2	4	–	–	CCOC(=O)CNC(=O)c1ccccc1Nc1c(Cl)ccc(C)c1Cl	–	–
0.14	3	–	–	COCCNC(=O)c1ccccc1Nc1c(Cl)ccc(C)c1Cl	–	–
0.2	66	–	–	Cc1ccc(Cl)c(Nc2ccccc2C(=O)NOCc2ccc([N+](=O)[O-])cc2)c1Cl	–	–
8	66	–	–	Cc1ccc(Cl)c(Nc2ccccc2C(=O)NOC(C)(C)C)c1Cl	–	–
0.8	2.6	–	–	COC(=O)[C@H](C)NC(=O)c1ccccc1Nc1c(Cl)ccc(C)c1Cl	–	–
6	33	–	–	Cc1ccc(Cl)c(Nc2ccccc2C(=O)N[C@@H](C)C(=O)O)c1Cl	–	–
2.7	6	–	–	COC(=O)[C@@H](C)NC(=O)c1ccccc1Nc1c(Cl)ccc(C)c1Cl	–	–
4.5	4	–	–	Cc1ccc(Cl)c(Nc2ccccc2C(=O)NCCc2ccccc2)c1Cl	–	–
1	66	–	–	Cc1ccc(Cl)c(Nc2ccccc2C(=O)NOCc2ccccc2)c1Cl	–	–

Compound	IC50 [1] [µM]	IC50 [4] [µM]	IC50 [5] [µM]	IC50 [6] [µM]	IC50 [2] [µM]	IC50 [3] [µM]
Cc1ccc(Cl)c(Nc2ccccc2C(=O)NCCOc2ccccc2)c1Cl	0.15	66	–	–	1.8	0.55
